{"source": "patent US8110605B2", "about": "“Compound for inactivating viruses and bacteria and method of making same” (priority 2009, dated 2012)", "key": {"[1]": {"test_system": "Tamiflu™-resistant strain H1N1 influenza virus (A/TW/066/09)", "assay_type": "cell-based"}, "[2]": {"test_system": "Tamiflu™-resistant H1N1 subtype influenza virus (A/TW/066/09) virions"}}, "note": "Where “and” joins values, the source holds several entries; their conditions need not be identical. Equal entries are not always repeated. Where two headings read alike, the source gives them in different places.", "data": [{"smiles": "O=C(O)C(CCCCCCCCCCS)C(=O)O", "note": "[2-(10-mercaptodecyl)-propanedioic acid]", "values": [{"measurement": "concentration protecting cells against infection by Tamiflu-resistant H1N1 influenza virus (as low as)", "setting": "[1]", "result": 30, "unit": "ppm"}, {"measurement": "CPE, Tamiflu-resistant H1N1 influenza virus treated with compound", "setting": "[1]; 3 ppm", "result": "+"}, {"measurement": "CPE, Tamiflu-resistant H1N1 influenza virus treated with compound", "setting": "[1]; 30 ppm", "result": "−"}, {"measurement": "CPE, Tamiflu-resistant H1N1 influenza virus treated with compound", "setting": "[1]; 100 ppm", "result": "−"}, {"measurement": "CPE, Tamiflu-resistant H1N1 influenza virus treated with compound", "setting": "[1]; 300 ppm", "result": "−"}, {"measurement": "CPE, Tamiflu-resistant H1N1 influenza virus treated with compound", "setting": "[1]; 1,000 ppm", "result": "CTX"}, {"measurement": "CPE, Tamiflu-resistant H1N1 influenza virus treated with compound", "setting": "[1]; 3,000 ppm", "result": "CTX"}, {"measurement": "maximum height of particles (AFM cursor profile)", "setting": "[2]", "result": "~6.95 nm and ~5.28 nm"}, {"measurement": "viral morphology by AFM", "setting": "[2]", "result": "disrupted and somewhat flattened"}, {"measurement": "calculated RMS height of treated particles", "setting": "[2]; 30 ppm", "result": "7.09±0.42", "unit": "nm"}, {"measurement": "calculated RMS height of treated particles", "setting": "[2]; 300 ppm", "result": "5.39±0.23", "unit": "nm"}]}]}
